Read-outs that look alike come from different tables or passages of the source.
Tests used:
[1] = target: Biotinylated KRAS G12C protein (Homo sapiens (Human), UniProt P01116, C118S/C51S/C80L/G12C); assay: SOS-catalyzed nucleotide exchange assay (TR-FRET); assay type: biochemical; settings: in vitro apparent potency; preincubation time of 60 minutes prior to addition of SOS
Outline: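 Biotinylated KRAS G12C preloaded with Bodipy-GDP and Tb-streptavidin, then incubated with compound (10-point, 3-fold series) for 60 min at RT. Exchange started with SOS and GTP for 60 min. TR-FRET 520/495 ratio normalised to DMSO and saturating-inhibitor controls; four-parameter fit.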

phospho-ERK = assay: Cellular phospho-ERK assay; assay type: cell-based; settings: NCI-H358 cells, 2 hour incubation, ratio of p-Erk vs total Erk, read-out: IC50 (nM) pERK (Cell)
Outline: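 NCI-H358 cells seeded overnight, then exposed to compound dose-response titrations for 2 hours at 37° C. in RPMI. Lysates assayed by AlphaLISA SureFire Ultra multiplex for p-Erk and total Erk; ratio p-Erk/total Erk used as readout, IC50 from 4-parameter logistic fit.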

Biotinylated KRAS G12C protein, sequence (P01116 other isoform, or with tags, fused parts or gaps, stated change not applied): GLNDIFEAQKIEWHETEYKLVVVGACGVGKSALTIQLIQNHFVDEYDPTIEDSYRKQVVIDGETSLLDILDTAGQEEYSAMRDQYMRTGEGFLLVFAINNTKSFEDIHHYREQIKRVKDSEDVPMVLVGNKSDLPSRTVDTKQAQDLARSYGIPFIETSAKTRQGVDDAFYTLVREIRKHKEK

IC50 [1]	IC50 (phospho-ERK; Homo sapiens, NCI-H358, 2 h)	IC50 (phospho-ERK)	Structure (SMILES)
2.4 nM	45 nM	–	C=CC(=O)N1C[C@H](C)N(c2nc(=O)n3c4nc(c(F)cc24)-c2c(F)c(F)cc(F)c2OCCCc2ccnc(C(C)C)c2-3)C[C@H]1C [Example 77, 2-[(2S,5R)-2,5-dimethyl-4-(prop-2-enoyl)piperazin-1-yl]-14,16,17,20-tetrafluoro-6-(propan-2-yl)-11,12-dihydro-4H,10H-1,18-ethenopyrido[4,3-e]pyrimido[1,6-g][1,7,9]benzoxadiazacyclododecin-4-one]
2.7 nM	29 nM	–	C=CC(=O)N1CC(C)N(c2nc(=O)n3c4nc(c(F)cc24)-c2c(F)ccc(F)c2OCC(F)(F)CCc2ccnc(C(C)C)c2-3)CC1C [Example 55, (5aRa,18aRa)-2-[(2S,5R)-2,5-dimethyl-4-(prop-2-enoyl)piperazin-1-yl]-12,12,15,18,21-pentafluoro-6-(propan-2-yl)-10,11,12,13-tetrahydro-4H-1,19-(ethanediylidene)pyrido[4,3-f]pyrimido[1,6-h][1,8,10] benzoxadiazacyclotri-decin-4-one]
2.9 nM	21 nM	–	C=CC(=O)N1C[C@H](C)N(c2nc(=O)n3c4nc(c(F)cc24)-c2c(F)cccc2OC(C)CCc2ccnc(C(C)C)c2-3)C[C@H]1C (single isomer, unassigned) [Example 81]
3.8 nM	32 nM	–	C=CC(=O)N1C[C@H](C)N(c2nc(=O)n3c4nc(c(F)cc24)-c2c(F)cccc2OCCc2ccnc(C(C)C)c2-3)C[C@H]1C [Example 96, 2-[(2S,5R)-2,5-dimethyl-4-(prop-2-enoyl)piperazin-1-yl]-16,19-difluoro-6-(propan-2-yl)-10,11-dihydro-4H-1,17-ethenopyrido[4,3-d]pyrimido[1,6-f][1,6,8]benzoxadiazacycloundecin-4-one]
3.4 nM	–	42 nM	C=CC(=O)N1C[C@H](C)N(c2nc(=O)n3c4nc(c(F)cc24)-c2c(F)ccc(F)c2OC[C@H](C)Oc2ccnc(C(C)C)c2-3)C[C@H]1C [Example 94, (11S)-2-[(2S,5R)-2,5-dimethyl-4-(prop-2-enoyl)piperazin-1-yl]-14,17,20-trifluoro-11-methyl-6-(propan-2-yl)-11,12-dihydro-4H-1,18-ethenopyrido[4,3-e]pyrimido[1,6-g][1,4,7,9]benzodioxadiazacyclododecin-4-one]
370 nM	–	1180 nM	C=CC(=O)N1CCN(c2nc(=O)n3c4nc(c(F)cc24)-c2c(F)cccc2CCOCCc2ccnc(C(C)C)c2-3)[C@H](C)C1 [Example 17b, 18,21-difluoro-2-[(2S)-2-methyl-4-(prop-2-enoyl)piperazin-1-yl]-6-(propan-2-yl)-10,11,13,14-tetrahydro-4H-1,19-ethenopyrido[3,4-e]pyrimido[6,1-c][9,2,4]benzoxadiazacyclotridecin-4-one]
2.4 nM	–	16 nM	C=CC(=O)N1CC(C)N(c2nc(=O)n3c4nc(c(F)cc24)-c2c(ccc(F)c2F)OCC(F)(F)CCc2ccnc(C(C)C)c2-3)CC1C [Example 54, (5aRa,18aRa)-2-[(2S,5R)-2,5-dimethyl-4-(prop-2-enoyl)piperazin-1-yl]-12,12,17,18,21-pentafluoro-6-(propan-2-yl)-10,11,12,13-tetrahydro-4H-1,19-(ethanediylidene)pyrido[4,3-f]pyrimido[1,6-h][1,8,10]benzoxadiazacyclotridecin-4-one]
9.2 nM	45 nM	–	C=CC(=O)N1CCN(c2nc(=O)n3c4nc(c(F)cc24)-c2cccc4cnn(c24)CCCCc2ccnc(C(C)C)c2-3)[C@@H](C)C1 [Example 6, 22-fluoro-2-[(2S)-2-methyl-4-(prop-2-enoyl)piperazin-1-yl]-6-(propan-2-yl)-10,11,12,13-tetrahydro-4H-1,20-(ethanediylidene)-pyrido[4′,3′:12,13]pyrimido-[1′,6′:1,2][1,3,7]triazacyclo-tridecino[5,6,7-hi]indazol-4-one]
4420 nM	–	19100 nM	C=CC(=O)N1CCN(c2nc(=O)n3c4nc(c(F)cc24)-c2cccc4cnn(c24)CCCOc2ccnc(C(C)C)c2-3)[C@@H](C)C1 [Example 3a, 22-fluoro-2-[(2S)-2-methyl-4-(prop-2-enoyl)piperazin-1-yl]-6-(propan-2-yl)-12,13-dihydro-4H,11H-1,20-ethenopyrido[4′,3′:2,3]pyrimido[1′,6′:4,5][1,4,6,10]oxatriazacyclotridecino[8,9,10-hi]indazol-4-one]
0.71 nM	12 nM	–	C=CC(=O)N1C[C@H](C)N(c2nc(=O)n3c4nc(c(F)cc24)-c2c(ccc(F)c2F)OCC2(CC2)Cc2ccnc(C(C)C)c2-3)C[C@H]1C [Example 92, 2′-[(2S,5R)-2,5-dimethyl-4-(prop-2-enoyl)piperazin-1-yl]-16′,17′,20′-trifluoro-6′-(propan-2-yl)-4′H,10′H,12′H-spiro[cyclopropane-1,11′-[13]oxa[3,5,7,19]tetraaza[1,18]ethenopyrido [4,3-e]pyrimido[1,6-g][1,7,9]benzoxadiazacyclododecin]-4′-one]
33 nM	–	113 nM	C=CC(=O)N1C[C@H](C)N(c2nc(=O)n3c4nc(c(F)cc24)-c2cccc(O)c2OCCCc2ccnc(C(C)C)c2-3)C[C@H]1C [Example 113, 2-[(2S,5R)-2,5-dimethyl-4-(prop-2-enoyl)piperazin-1-yl]-20-fluoro-14-hydroxy-6-(propan-2-yl)-11,12-dihydro-4H,10H-1,18-(ethanediylidene)pyrido[4,3-e]pyrimido[1,6-g][1,7,9]benzoxadiazacyclododecin-4-one]
4.5 nM	6.3 nM	–	C=CC(=O)N1C[C@H](C)N(c2nc(=O)n3c4nc(c(F)cc24)-c2cccc4cnn(c24)CCCCc2ccnc(C(C)C)c2-3)C[C@H]1C [Example 68, 2-[(2S,5R)-2,5-dimethyl-4-(prop-2-enoyl)piperazin-1-yl]-22-fluoro-6-(propan-2-yl)-10,11,12,13-tetrahydro-4H-1,20-(ethanediylidene)pyrido [4′,3′:12,13]pyrimido [1′,6′:1,2][1,3,7]triaza-cyclotridecino[5,6,7-hi] indazol-4-one]
237 nM	–	1020 nM	C=CC(=O)N1CC(C)N(c2nc(=O)n3c4nc(c(F)cc24)-c2c(F)cccc2COCCc2ccnc(C(C)C)c2-3)CC1C [Example 115, 2-[(2S,5R)-2,5-dimethyl-4-(prop-2-enoyl)piperazin-1-yl]-17,20-difluoro-6-(propan-2-yl)-10,11-dihydro-1,18-ethenopyrido[3,4-e]pyrimido[6,1-c][9,2,4]benzoxadiazacyclododecin-4(13H)-one]
25 nM	508 nM	–	C=CC(=O)N1CCN(c2nc(=O)n3c4nc(c(F)cc24)-c2c(F)cccc2OCCCc2ccnc(C(C)C)c2-3)C(Cc2ccccc2)C1 (stereo not drawn) [Example 100, 2-[2-benzyl-4-(prop-2-enoyl)piperazin-1-yl]-17,20-difluoro-6-(propan-2-yl)-11,12-dihydro-4H,10H-1,18-ethenopyrido[4,3-e]pyrimido[1,6-g][1,7,9]benzoxadiazacyclododecin-4-one]
3.5 nM	54 nM	–	C=CC(=O)N1C[C@H](C)N(c2nc(=O)n3c4nc(c(F)cc24)-c2c(ccc(F)c2F)OCC2(CCc4ccnc(C(C)C)c4-3)CC2)C[C@H]1C [Example 62, 2′-[(2S,5R)-2,5-dimethyl-4-(prop-2-enoyl)piperazin-1-yl]-17′,18′,21′-trifluoro-6′-(propan-2-yl)-10′,11′-dihydro-4′H,13′H-spiro[cyclopropane-1,12′-[14]oxa [3,5,7,20]tetraaza[1,19] (ethanediylidene)pyrido[4,3-f]pyrimido[1,6-h][1,8,10]benzoxadiazacyclotri-decin]-4′-one]
12 nM	50 nM	–	[2H]C1([2H])Oc2ccnc(C(C)C)c2-n2c(=O)nc(N3C[C@@H](C)N(C(=O)C=C)C[C@@H]3C)c3cc(F)c(nc32)-c2c(F)ccc(F)c2OC1([2H])[2H] [Example 67, 2-[(2S,5R)-2,5-Dimethyl-4-(prop-2-enoyl)piperazin-1-yl]-14,17,20-trifluoro-6-(propan-2-yl)-11,12-di[(^2H)hydro](11,12-^2H2)-4H-1,18-(ethanediylidene)pyrido [4,3-e]pyrimido[1,6-g][1,4,7,9] benzodioxadiazacyclo-dodecin-4-one]
31 nM	572 nM	–	C=CC(=O)N1C[C@H](C)N(c2nc(=O)n3c4cc(c(F)cc24)-c2c(F)ccc(F)c2OCCOc2ccnc(C(C)C)c2-3)C[C@H]1C [Example 93, 2-[(2S,5R)-2,5-dimethyl-4-(prop-2-enoyl)piperazin-1-yl]-14,17,20-trifluoro-6-(propan-2-yl)-11,12-dihydro-4H-1,18-(ethanediylidene)pyrido[4,3-e]pyrimido[1,6-g][1,4,7]benzodioxazacyclododecin-4-one]

Structure (SMILES)	IC50 [1]	IC50 (phospho-ERK; Homo sapiens, NCI-H358, 2 h)	IC50 (phospho-ERK)
C=CC(=O)N1C[C@H](C)N(c2nc(=O)n3c4nc(c(Cl)cc24)-c2c(ccc(F)c2F)OCCCc2ncnc(C(C)C)c2-3)C[C@H]1C [Example 74, 20-chloro-2-[(2S,5R)-2,5-dimethyl-4-(prop-2-enoyl)piperazin-1-yl]-16,17-difluoro-6-(propan-2-yl)-11,12-dihydro-4H,10H-1,18-ethenodipyrimido[4,5-e:1′,6′-g][1,7,9]benzoxadiazacyclododecin-4-one]	0.51 nM	3.6 nM	–

Reference: patent US20240043448A1, “Small Molecule Inhibitors of KRAS G12C Mutant” (Merck Sharp & Dohme LLC, priority 2019, published 2024)
